According to ChEMBL document CHEMBL1137853, “Discovery of potent and selective beta-homophenylalanine based dipeptidyl peptidase IV inhibitors” (Bioorg Med Chem Lett, 2004):

Legend:
Dipeptidyl peptidase 4 = Dipeptidyl peptidase 4 (Homo sapiens, UniProt P27487); assay: Inhibitory concentration against Dipeptidyl peptidase IV
Dipeptidyl peptidase 2 = Dipeptidyl peptidase 2 (Homo sapiens, UniProt Q9UHL4); assay: Inhibitory concentration against quiescent cell proline dipeptidase
[1] = Half life in rat at 2 mpk po; type: ADME, organism-based; conditions: in vivo, 2 mg/kg
[2] = Bioavailability in rat (dose 1 mg/kg i.v.); type: ADME, organism-based; conditions: in vivo, iv
[3] = Plasma clearance in rat at 2 mpk po; type: ADME, organism-based; conditions: 2 mg/kg, read-out: Clearance
[4] = Half life in rat at 1 mpk iv; type: ADME, organism-based; conditions: in vivo, 1 mg/kg
[5] = Bioavailability in rat (dose 2 mg/kg p.o.); type: ADME, organism-based; conditions: in vivo, po
[6] = Plasma clearance in rat at 1 mpk iv; type: ADME, organism-based; conditions: 1 mg/kg

Dipeptidyl peptidase 4, sequence (P27487 whole entry): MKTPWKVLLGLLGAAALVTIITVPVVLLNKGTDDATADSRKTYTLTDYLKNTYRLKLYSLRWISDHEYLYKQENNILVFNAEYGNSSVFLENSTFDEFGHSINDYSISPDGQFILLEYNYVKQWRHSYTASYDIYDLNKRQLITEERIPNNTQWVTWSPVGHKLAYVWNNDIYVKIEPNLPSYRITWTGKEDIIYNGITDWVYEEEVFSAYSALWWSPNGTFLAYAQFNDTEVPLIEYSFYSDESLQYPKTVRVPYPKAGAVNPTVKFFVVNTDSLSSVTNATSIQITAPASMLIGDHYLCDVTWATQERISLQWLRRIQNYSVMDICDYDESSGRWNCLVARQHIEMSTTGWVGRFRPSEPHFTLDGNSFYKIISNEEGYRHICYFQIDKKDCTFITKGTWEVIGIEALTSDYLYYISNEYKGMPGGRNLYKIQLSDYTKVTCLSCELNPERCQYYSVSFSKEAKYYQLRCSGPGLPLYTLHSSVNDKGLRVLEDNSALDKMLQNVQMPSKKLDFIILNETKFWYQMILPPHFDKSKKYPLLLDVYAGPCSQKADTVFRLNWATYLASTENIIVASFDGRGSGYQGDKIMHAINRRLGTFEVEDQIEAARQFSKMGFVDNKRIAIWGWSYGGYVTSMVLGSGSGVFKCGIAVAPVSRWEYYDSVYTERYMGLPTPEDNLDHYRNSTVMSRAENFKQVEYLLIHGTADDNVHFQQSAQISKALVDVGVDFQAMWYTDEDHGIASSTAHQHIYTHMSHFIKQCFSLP

| IC50 (Dipeptidyl peptidase 4) [µM] | IC50 (Dipeptidyl peptidase 2) [µM] | Compound | other results |
| --- | --- | --- | --- |
| 46.9 |  | N[C@@H](CC(=O)N1CCSC1)Cc1ccoc1 |  |
| 2.03 | 48.5 | N[C@@H](CC(=O)N1CCSC1)Cc1cccc(F)c1 |  |
| 5.7 |  | N[C@@H](CC(=O)N1CCSC1)Cc1ccsc1 |  |
| 51 |  | N[C@@H](CC(=O)N1CCSC1)Cc1ccncc1 |  |
|  | > 100 | N[C@@H](CC(=O)N1CCSC1)Cc1ccccc1 |  |
| 2.26 | 82.1 | N[C@@H](CC(=O)N1CCSC1)Cc1ccccc1C(F)(F)F |  |
| 0.931 | 49.7 | N[C@@H](CC(=O)N1CCSC1)Cc1ccccc1F |  |
| 8.48 |  | N[C@@H](CC(=O)N1CCSC1)Cc1c(F)cccc1F |  |

Second part, the compound before the results:

| Compound | IC50 (Dipeptidyl peptidase 4) [µM] | IC50 (Dipeptidyl peptidase 2) [µM] | other results |
| --- | --- | --- | --- |
| N[C@@H](CC(=O)N1CCSC1)CC1CCCC1 | 27.5 |  |  |
| N[C@@H](CC(=O)N1CCSC1)Cc1ccc(C(F)(F)F)cc1 | 7.69 |  |  |
| N[C@@H](CC(=O)N1CCSC1)Cc1ccc(Cl)cc1 | 3.03 | 36.2 |  |
| N[C@@H](CC(=O)N1CCSC1)Cc1ccc(F)cc1F | 0.589 | 56.1 |  |
| N[C@@H](CC(=O)N1CCSC1)Cc1ccc(Cl)c(Cl)c1 | 2.03 | 48.5 |  |
| N[C@@H](CC(=O)N1CCSC1)Cc1ccc([N+](=O)[O-])cc1 | 1.55 | 24.3 |  |
| N[C@@H](CC(=O)N1CCSC1)Cc1cccc(F)c1F | 9.4 |  |  |
| N[C@@H](CC(=O)N1CCSC1)Cc1ccc(F)c(F)c1 | 1.7 | 33.9 |  |
| N[C@@H](CC(=O)N1CCSC1)Cc1ccccn1 | 39.6 |  |  |
| N#Cc1ccccc1C[C@@H](N)CC(=O)N1CCSC1 | 2.52 | > 100 |  |
| N[C@@H](CC(=O)N1CCSC1)Cc1cccnc1 | 44.9 |  |  |
| Cc1ccccc1C[C@@H](N)CC(=O)N1CCSC1 | 0.981 | 92.1 |  |
| N[C@@H](CC(=O)N1CCSC1)Cc1cccc(C(F)(F)F)c1 | 3.61 | 24.6 |  |
| COc1cc(OC)cc(-c2nc(-c3ccc(Cl)cc3Cl)c(CN(C)C)c(N(C)C)n2)c1 | 0.0001 |  |  |
| N[C@@H](CC(=O)N1CCSC1)CC1CCCCC1 | 33 |  |  |
| N[C@H](CCc1ccccc1)CC(=O)N1CCSC1 | 16.5 |  |  |
| N[C@@H](CC(=O)N1CCSC1)Cc1cc(F)c(F)cc1F |  |  | half-life [1]: 66 min; bioavailability [2]: 3%; CL/F [3]: 120 mL/min/kg; half-life [4]: 66 min; bioavailability [5]: 3%; clearance [6]: 120 mL/min/kg |
| N[C@@H](CC(=O)N1CCSC1)Cc1ccc(F)cc1 | 3.28 | 67.6 |  |
| N[C@@H](CC(=O)N1CCSC1)c1ccccc1 | > 100 |  |  |
| N#Cc1ccc(C[C@@H](N)CC(=O)N2CCSC2)cc1 | 14.9 |  |  |
| N[C@@H](CC(=O)N1CCSC1)Cc1ccc(I)cc1 | 10.7 | 5.78 |  |
| N#Cc1cccc(C[C@@H](N)CC(=O)N2CCSC2)c1 | 8.95 | 29.8 |  |
| N[C@@H](CC(=O)N1CCSC1)Cc1cc(F)ccc1F | 0.27 | 77.6 | half-life [1]: 30 min; bioavailability [2]: 2%; CL/F [3]: 110 mL/min/kg; half-life [4]: 30 min; bioavailability [5]: 2%; clearance [6]: 110 mL/min/kg |
